Data: patent publication US20060194230A1, “Genetic markers associated with benign prostatic hyperplasia” (BAYLOR COLLEGE OF MEDICINE, priority 2005, published 2006)

B1: IFNγ: interferon-γ used to stimulate prostate cell lines, 100 U/ml (protein, UniProt P01579 24-161, looked up)
Interferon gamma: QDPYVKEAENLKKYFNAGHSDVADNGTLFLGILKNWKEESDRKIMQSQIVSFYFKLFKNFKDDQSIQKSVETIKEDMNVKFFNSNKKKRDDFEKLTNYSVTDLNVQRKAIHELIQVMAELSPAAKTGKRKRSQMLFRG

Assays:
prostate cell lines [1] = assay: Induction of potential BPH markers in prostate cell lines cultured with androgen or inflammatory agents; format: cell-based, human; settings: non-cancer prostate cell lines cultured in the presence of the agent
Experimental: To confirm the expression of CXCL9, 10 and 11, contactin 1 and CXCR3 in prostate tissue, the present inventors examined several non-cancer prostate cell lines for these markers. The prostate epithelial cells RWPE-1 and PWR-1E are androgen responsive nomal or hyperplastic cells transformed with HPV1828, 29. The epithelial cell line BPH 130 is originated from BPH tissue transformed with SV40 T antigen. […] Cells were cultured in their prescribed media and were fixed, permeabilized and stained by standard methods and analyzed by single color flow cytometry. […] To determine if prostate cell expression of CXCL chemokines was responsive to interferon stimulation, stromal and epithelial cell lines were cultured in the presence of IFNγ. Chemokine induction was measured by Q-RT-PCR and is shown as fold induction over basal expression in untreated cells (FIG. 12).

prostate RNA samples = assay: Real-time quantitative RT-PCR validation in prostate samples from drug treated patients; format: in vivo, human; settings: BPH nodules, drug treatment versus no drug
Experimental: To further refine the list of genes profiled in the microarray studies, the differential expression of 30 of these genes were tested by real-time quantitative RT-PCR (Q-RT-PCR). Since Q-RT-PCR is based on the detection of small amplimers (80-150 base pairs) it. is less affected by RNA degradation than microarrays. This allowed the inventors to used a larger sample set of prostate RNA than were included in the microarray analyses. The inventors tested […] small and 10 big prostate samples (including the 15 samples from the array analysis) and 24 samples from drug treated patients (10 treated with finasteride, 7 treated with tamsulosin, and 7 treated with both drugs). Individual comparisons were made between small and big prostates and between no drug (all 18 small and big samples) and drug treatments for each therapy drug condition without consideration of the treatment duration. Several groups of genes validated with significant differences by Q-RT-PCR between small and big prostate and/or those regulated by at least one drug treatment. The three pro-inflammatory chemokines CXCL9 (MIG), CXCL10 (IP-10), and CXCL11 (I-TAC) are best known for production by monocytes as chemotactic agents for T cells (Kim and Broxmeyer, 1999). […]

[2] = system: prostate transition zone tissue; assay: Microarray (Affymetrix U133 Plus 2.0) gene expression in prostates of patients treated with finasteride, tamsulosin or both before radical prostatectomy (Table 7); format: in vivo, human; settings: patients treated 2, 4 or 6 weeks before prostatectomy; minus sign = down regulation
Experimental: In non-limiting exemplary embodiments of the invention, a randomized, open-label, single-center study was performed to determine the spatio-temporal changes in gene expression within the prostate of patients who receive 0.4 mg of Flomax® (tamsulosin) capsules daily, 5 mg of Proscar® (finasteride) tablets daily, or both for either 6, 4, or 2 weeks prior to radical prostatectomy. Tissue samples from radical prostatectomy specimens were obtained under an ongoing IRB-approved protocol (H-1158). Zone-specific tissue samples from patients undergoing radical prostatectomy for clinically localized prostate cancer were harvested and frozen in liquid nitrogen for later analysis. In addition to prostate cancer tissue samples, samples from the transition zone from these patients have also been harvested. Participants were randomly allocated to one of three drug treatment arms, after being categorized into one of three groups according to the duration from enrollment date to scheduled surgery date. BPH related symptoms were assessed using self-administered BPH symptom questionnaires at day of enrollment and every 2 weeks (no clinic visit required) until surgery. Medication compliance is assessed at the time of radical prostatectomy. FIG. 1 illustrates an exemplary randomized block design with variable block size for randomly assigning participants to nine treatment groups. After standard quality control analysis of extracted mRNA, 20 samples from patient prostates treated with either finasteride, tamsulosin, or both drugs together for 2, 4, or 6 weeks, were subjected to microarray chip hybridization (in conjunction with the Baylor College of Medicine Microarray Core Facility). In Table 6, patients were treated with the 5-alpha reductase inhibitor, Finasteride (FIN), or the alpha-1 adrenergic receptor antagonist, Tamsulosin (TAM), or both drugs together (FIN+TAM) for the times indicated prior to prostatectomy. Samples were used in Affymetrix U133 Plus 2.0 microarray analysis as shown. Through this analysis, a number of genes (listed in Table 7) were identified whose expression was modulated by drug treatment. These genes are associated with inflammatory pathways (an exemplary embodiment of which is provided in FIG. 2), Wnt signaling pathway (an exemplary embodiment of which is provided in FIG. 3); cell signaling and cell cycle regulatory pathway (an exemplary embodiment of which is provided in FIG. 4), or extracellular matrix remodeling. Although several of these genes have previously been implicated in prostate cancer progression, they have not been described in connection with progression of BPH or in connection with the exemplary drug treatment regimes described above. In Table 7, there are polynucleotides showing 1.3-77 fold changes in expression level after drug treatment. Down regulation after drug treatment is signified by “-” in front of the fold change. In particular embodiments, the information may be obtained at particular timepoints following the onset of therapy, such as about 1 day, 2 days, 3 days, 4 days, 5 days, 6 days, 1 week, 2 weeks, 3 weeks, 4 weeks, 5 weeks, 6 weeks, 7 weeks, 8 weeks, or combinations thereof, or more or less, for example. In the specific embodiments wherein more than one timepoint is evaluated, an average of the timepoints may be obtained.

TZ BPH prostate tissue = assay: Microarray gene expression in TZ BPH nodular tissue of drug treated patients, dChip/ANOVA analysis (Table 11); format: in vivo, human; settings: for expression of the five markers MIG (CXCL9), IP 10 (CXCL10), I-TAC (CXCL11), Contactin-1 (CNTN1), Dickkopf-3 (DKK3): TZ BPH tissue from treated patients versus untreated BPH tissue
From the text: In specific embodiments of the present invention, the inventors employed the exemplary Affymetrix U133 Plus 2.0 whole genome microarrays to profile gene expression in the transition zone (TZ) of small (≦30 g) and big (≧70 g) prostates. In addition, they also profiled gene expression changes in TZ benign prostatic hyperplasia (BPH) tissue from patients treated with α1-receptor blockade (tamsulosin), 5α-reductase type II inhibition (finasteride), or both medications combined. Integrating the results from these profiles led to the discovery of 5 exemplary polynucleotides that in specific embodiments are diagnostic and/or prognostic biomarkers for BPH. These exemplary markers include the three interferon inducible pro-inflammatory chemokines, MIG (CXCL9), IP 10 (CXCL10), and I-TAC (CXCL11), the adhesion molecule Contactin-1 (CNTN1), the Wnt pathway signaling inhibitor Dickkopf-3 (DKK3), and any combination thereof. […] In further specific embodiments, the mechanisms by which these inflammatory BPH markers are induced and their influence on prostate hyperplasia is determined.
To address the second specific embodiment, patients awaiting radical prostatectomy were given a standard therapeutic course of tamsulosin, finasteride or both tamsulosin and finasteride for 2, 4, or 6 weeks prior to surgery. TZ BPH nodular tissue was isolated post surgery. Total RNA was purified from 24 samples from individual patients and analyzed using Affymetrix U133 Plus 2.0 microarrays. Of the 24 arrays run on drug treated patient prostates, 7 were ultimately excluded from the final analysis due poor signal quality within the arrays.
Expression levels from drug treated prostate tissue were analyzed with dChip. Comparison of changes in gene expression between drugs and between time of therapy was performed by ANOVA. This initial analysis yielded 3568 genes with significant a difference (p≦0.01) in at least 1 comparison. […] Genes regulated by drug treatment were grouped by pathway or common function and those showing multiple changes in expression are shown in Table 11.

[3] = system: hyperplastic prostatic tissue; settings: cited from earlier work
prostate cell lines [4] = format: cell-based, human; settings: 4 prostate cell lines, with or without 100 U/ml IFNγ, Q-RT-PCR
Experimental: 4 prostate cell lines were cultured in media with or without 100 U/ml IFNγ. Chemokine expression was determined by Q-RT-PCR and induction calculated using the 2^−ΔΔCt method compared to untreated cells.
To confirm the expression of CXCL9, 10 and 11, contactin 1 and CXCR3 in prostate tissue, the present inventors examined several non-cancer prostate cell lines for these markers. The prostate epithelial cells RWPE-1 and PWR-1E are androgen responsive nomal or hyperplastic cells transformed with HPV1828, 29. The epithelial cell line BPH 130 is originated from BPH tissue transformed with SV40 T antigen. The cell lines HTS-2T and HPS-19B are primary prostate stromal cell lines from TZ and PZ, respectively (Singh et al., 2004). Cells were cultured in their prescribed media and were fixed, permeabilized and stained by standard methods and analyzed by single color flow cytometry. The chemokines CXCL9, 10 and 11 were present in all cells tested as was contactin 1 (FIG. 11). DKK3 was not tested for lack of a suitable antibody for flow cytometric analysis. CXCR3 was highly expressed in all the cells. […] Chemokine induction was measured by Q-RT-PCR and is shown as fold induction over basal expression in untreated cells (FIG. 12). […]

[5] = treatment with drug between 2 and 6 weeks, TZ BPH tissue

Molecule	expression of chemokines CXCL9 (MIG), CXCL10 (IP-10), CXCL11 (I-TAC) (prostate RNA samples)	CKTSF1B1 (Gremlin) expression fold change after drug treatment [2]	CXCL9 expression fold change after drug treatment [2]	CXCL10 expression fold change after drug treatment [2]	CXCL11 expression fold change after drug treatment [2]	CyclophilinC expression fold change after drug treatment [2]	Frizzled 10 expression fold change after drug treatment [2]	HLA-DP expression fold change after drug treatment [2]	HS3ST3B1 expression fold change after drug treatment [2]	ORM1 expression fold change after drug treatment [2]	VEGF expression fold change after drug treatment [2]	WIF1 expression fold change after drug treatment [2]	expression of the five markers MIG (CXCL9), IP 10 (CXCL10), I-TAC (CXCL11), Contactin-1 (CNTN1), Dickkopf-3 (DKK3) (TZ BPH prostate tissue)	CKTSF1B1 (Gremlin) differential gene expression (TZ BPH prostate tissue; [5])	CXCL9 differential gene expression (TZ BPH prostate tissue; [5])	HLA-DP differential gene expression (TZ BPH prostate tissue; [5])	HS3ST3B1 differential gene expression (TZ BPH prostate tissue; [5])	ORM1 differential gene expression (TZ BPH prostate tissue; [5])	VEGF differential gene expression (TZ BPH prostate tissue; [5])	WIF1 differential gene expression (TZ BPH prostate tissue; [5])	other results
C[C@]1(O)CC[C@H]2[C@@H]3CCC4=CC(=O)CCC4=C3C=C[C@@]21C [R1881]																					changes in BPH marker expression (CXCL9, 10, 11, contactin 1, CXCR3) (prostate cell lines [1]): No changes
CCOc1ccccc1OCCN[C@H](C)Cc1ccc(OC)c(S(N)(=O)=O)c1 [Tamsulosin, tamsulosin]	decreased	−4.76 fold	−3.37 fold	−4.65 fold	−5.81 fold	−1.87 fold	−1.82 fold	−2.33 fold	−2.20 fold	76.96 fold	−2.01 fold	−4.60 fold	decreased	−4.76 fold	−2.86 fold	−2.33 fold	−2.20 fold	76.96 fold	−2.01 fold	−4.60 fold	Cbl-b expression fold change after drug treatment [2]: 1.30 fold; Dicer 1 expression fold change after drug treatment [2]: 1.30 fold; DKK3 differential gene expression (TZ BPH prostate tissue; [5]): −2.85 fold
CC(C)(C)NC(=O)[C@H]1CC[C@H]2[C@@H]3CC[C@H]4NC(=O)C=C[C@]4(C)[C@H]3CC[C@]12C [Finasteride, finasteride]	decreased	−4.10 fold	−2.85 fold	−2.01 fold	−2.62 fold	−2.52 fold	−2.45 fold	−2.29 fold	−2.29 fold	2.38 fold	−2.15 fold	−7.53 fold	decreased	−4.10 fold	−3.61 fold	−2.29 fold	−2.29 fold	2.38 fold	−2.15 fold	−7.53 fold	reduction of prostate growth ([3]; over the first year, without recurrance of significant prostatic growth): ≤ 20%; DKK3 expression fold change after drug treatment [2]: −2.28 fold; KLK4 expression fold change after drug treatment [2]: −3.47 fold; SPROUTY2 expression fold change after drug treatment [2]: −1.94 fold; ZNF36 expression fold change after drug treatment [2]: −1.55 fold; CTNNB1 differential gene expression (TZ BPH prostate tissue; [5]): 2.26 fold; Frizzled 10 differential gene expression (TZ BPH prostate tissue; [5]): −2.45 fold; KLK4 differential gene expression (TZ BPH prostate tissue; [5]): −3.47 fold
COc1cc2nc(N3CCN(C(=O)C4COc5ccccc5O4)CC3)nc(N)c2cc1OC (stereo not shown) [doxazosin]																					apoptosis in the stromal compartment of hyperplastic prostatic tissue ([3]; alpha blockade): increases; overall re-occurrence rate of BPH ([3]; alpha blockade): does not decrease
B1																					CXCL chemokine expression in prostate cells (prostate cell lines [4]): up-regulated
